Entries after “also recorded” stand apart in the source; their conditions may differ. Read-outs that look alike come from different tables or passages of the source.
Experiments:
Assay type in all cases: cell-based
[1] = tested on: NRF2 activity in H1299-NQO1-YFP cells; experiment: NRF2 activity reporter IC50 in H1299-NQO1-YFP cells vs NRF2 pathway activators (IncuCyte, YFP/mCherry)
Description: Readings were taken every 2 hours for at least 24 hours. […] Readings were also taken every 2 hours for 96 hours in and IncuCyte S3.
YFP total intensity (correlating to NRF2 activity) was normalized to NLS-mCherry (cell number) total intensity to give a ratio (YFP/mCherry). Ratios at one time point at least 24 hours post compounds were added were used. These numbers were then plotted in Graphpad Prism to calculate IC50s. […] From three biological replicates, percent confluence was used for proliferation assays to calculate IC50s, calculations performed using Graphpad Prism.

NRF2 protein = experiment: Western blot analysis of NRF2 protein abundance and downstream targets in cell lines; settings: for NRF2 protein abundance: western blot, 24-48 hours, PYR 10 μM, analogs 1 μM (104 in HEK293T 10 μM), MTX and PEM 0.1 μM, CG 10 μM
Description: Western Blots: KYSE70, HEK293T cells were plated and 24 hours later treated with compounds (see figure legends for details). Either at 24 or 48 hours later, cells were scrapped in RIPA buffer (0.2% deoxycholate, 0.1% SDS, 1% NP40, 150 mM NaCl, 50 mM Tris pH 7.4, 2 mM EDTA) supplemented with protease and phosphatase inhibitors, cleared at 14000×g for 15 minutes at 4° C., and supernatants were quantified by BCA assay (Pierce, 23225). Protein samples (20 μg) were prepared with 1×LDS buffer with 100 mM DTT, ran on NuPAGE 4-12% Bis-tris gels, and transferred onto a […] nitrocellulose membrane (Thermo, 88018). All blots were blocked in 5% milk in TBST for 30 minutes. After incubation of the primary antibody overnight at 4° C. and washed three times with 1×TBST, blots were incubated with LI-COR secondary antibodies for 1-2 hours, washed in 1×TBST thrice, and then imaged via a LI-COR Odyssey instrument (Li-COR, Lincoln, Nebr.).

[2] = tested on: NRF2 mRNA and NRF2 target gene mRNA; experiment: RT-qPCR of NRF2 mRNA and NRF2 downstream targets in KYSE70 cells; settings: 24 or 48 hours, PYR 10 μM, analogs 1 μM, MTX and PEM 0.1 μM
Description: qRT-PCR: Total RNA was extracted using PureLink RNA kit following the manufacturers protocol. Primers for qPCR were designed using the National Center for Biotechnology Information's (NCBI) Primer-BLAST platform. For primer sequences, see Table 2. RNA was quantified using a Nanodrop One (Thermo, Waltham, Mass.), and the reverse transcription reaction was performed using 2 μg of RNA with the iSCRIPT Clear kit with DNAse (Biorad, 170-8891). For the qRT-PCR, PowerUP SYBR Green (Thermo, A25741) was used, and data were analyzed on an AB QuantStudio 6 Flex Real Time PCR machine (Applied Biosystems, Foster City, Calif.). ΔCT values were normalized to housekeeping gene RPL13a and then normalized to DMSO for final ΔΔCT value.

[3] = Table 1, activator CDDO 0.1 μM, H1299-NQO1-YFP cells, read-out: CDDO 0.1 μM IC50 μM ± SEM
[4] = Table 1, activator SULF 2 μM, H1299-NQO1-YFP cells, read-out: SULF 2 μM IC50 μM ± SEM
[5] = Table 1 and text, average over activators CDDO, PRL295, SULF, H1299-NQO1-YFP cells, read-out: Avg IC50
[6] = Table 6 NRF2 inhibitors, read-out: Avg IC50
[7] = read-out: PRL295 5 μM IC50 AM ± SEM, Table 1, activator PRL295 5 μM, H1299-NQO1-YFP cells

In the case of `CCc1nc(N)nc(N)c1-c1ccc(S(=O)(=O)C2CC3CC3C2)cc1` (stereo not shown) [WCDD108, 5-(4-(bicyclo[3.1.0]hexan-3-ylsulfonyl)phenyl)-6-ethylpyrimidine-2,4-diamine], the IC50 [1, 3] is reported as 16.9 ± 0.208 µM, the IC50 [1, 4] is reported as 12.56 ± 0.103 µM and the IC50 [1, 5] is reported as 14.9 µM. The IC50 [1, 6] was 14.9 µM and the IC50 [1, 7] was 15.2 ± 1.29 µM.

In the case of `Nc1nc(N)c(-c2cccc(C(F)(F)F)c2)c(CCCNC(=O)CCCC[C@H]2SCC3NC(O)NC32)n1` (stereo partly drawn) [WCDD137, N-(3-(2,6-diamino-5-(3-(trifluoromethyl)phenyl)pyrimidin-4-yl)propyl)-5-((4R)-2-hydroxyhexahydro-1H-thieno[3,4-d]imidazol-4-yl)pentanamide], the IC50 [1, 5] is reported as 4.84 µM and the IC50 [1, 7] is reported as 4.84 ± 0.284 µM.

Molecule `C#CCCC1(CCC(=O)NCCCc2nc(N)nc(N)c2-c2cccc(C(F)(F)F)c2)N=N1` [WCDD136, 3-(3-(but-3-yn-1-yl)-3H-diazirin-3-yl)-N-(3-(2,6-diamino-5-(3-(trifluoromethyl)phenyl)pyrimidin-4-yl)propyl)propanamide] has an IC50 [1, 5] of roughly 0.15 µM and an IC50 [1, 7] of 0.153 ± 0.002 µM.

Molecule `C#CCCCc1nc(N)nc(N)c1-c1cccc(Cl)c1` [WCDD128, 5-(3-chlorophenyl)-6-(pent-4-yn-1-yl)pyrirnidine-2,4-diamine] has an IC50 [1, 3] of 0.244 ± 0.006 µM, an IC50 [1, 4] of 0.163 ± 0.002 µM and an IC50 [1, 5] of 0.248 µM. For the same molecule, the IC50 [1, 6] was 0.248 µM and the IC50 [1, 7] was 0.334 ± 0.004 µM.

`Nc1ncc(-c2cccc(Cl)c2)c(N)n1` [WCDD134, 5-(3-chlorophenyl)pyrimidine-2,4-diamine] gave an IC50 [1, 3] of 1.84 ± 0.196 µM, an IC50 [1, 4] of 1.88 ± 0.024 µM and an IC50 [1, 5] of 1.43 µM. For the same molecule, the IC50 [1, 6] was 1.43 µM and the IC50 [1, 7] was 1.84 ± 0.196 µM.

`CCc1nc(N)nc(N)c1-c1ccc(N2CC3CC3C2)cc1` (stereo not shown) [WCDD110, 5-(4-(3-azabicyclo[3.1.0]hexan-3-yl)phenyl)-6-ethylpyrimidine-2,4-diamine] gave an IC50 [1, 5] greater than 20 µM and an IC50 [1, 6] greater than 20 µM.

`CCc1nc(N)nc(N)c1-c1cccc(Cl)c1` [WCDD104, 5-(3-chlorophenyl)-6-ethylpyrimidine-2,4-diamine] gave an IC50 [1, 3] of 0.103 ± 0.001 µM, an IC50 [1, 4] of 0.129 ± 0.003 µM and an IC50 [1, 5] of 0.1 µM. For the same molecule, the IC50 [1, 6] was 0.098 µM, the IC50 [1, 7] was 0.061 ± 0.003 µM and the IC50 ([1]; unit inferred, read-out: IC50) was 0.1 µM. The “NRF2 protein on co-treatment with Bortezomib” value (NRF2 protein; BORT 0.04 μM co-treatment, HEK293T, H1299) was “demonstrated a proteasomal requirement for activity” and the NRF2 protein abundance (NRF2 protein) was “inhibition of NRF2 protein abundance and downstream target gene expression; also recorded: decrease NRF2 protein abundance”.

`CCc1nc(N)nc(N)c1-c1ccc(C(C)(F)F)cc1` [WCDD105, 5-(4-(1,1-difluoroethyl)phenyl)-6-ethylpyrimidine-2,4-diamine] showed an IC50 [1, 3] of 5.12 ± 0.074 µM, an IC50 [1, 4] of 3.279 ± 0.006 µM and an IC50 [1, 5] of 4.04 µM. The IC50 [1, 6] was 4.04 µM and the IC50 [1, 7] was 3.74 ± 0.499 µM.

`CCC1=NC(N)=NC(=O)C1c1ccc(Cl)cc1` (stereo not shown) [WCDD112, 2-amino-5-(4-chlorophenyl)-6-ethylpyrimidin-4(5H)-one] was tested, and the IC50 [1, 3] was 19.8 ± 0.338 µM, the IC50 [1, 4] was 10.92 ± 0.0655 µM and the IC50 [1, 5] was 13.9 µM. It also gave an IC50 [1, 6] of 13.9 µM and an IC50 [1, 7] of 10.8 ± 0.62 µM.

Molecule `CCc1nc(N)nc(N)c1-c1cccc(N2CCCC2)c1` [WCDD122, 6-ethyl-5-(3-(pyrrolidin-1-yl)phenyl)pyrimidine-2,4-diamine] has an IC50 [1, 5] greater than 5 µM and an IC50 [1, 6] greater than 5 µM.

For `Nc1nc(N)c(-c2cccc(Cl)c2)c(CC2CCC2)n1` [WCDD127, 5-(3-chlorophenyl)-6-(cyclobutylmethyl)pyrimidine-2,4-diamine], the IC50 [1, 3] was 0.469 ± 0.002 µM, the IC50 [1, 4] was 0.454 ± 0.006 µM and the IC50 [1, 5] was 0.456 µM. It also gave an IC50 [1, 6] of 0.456 µM and an IC50 [1, 7] of 0.444 ± 0.002 µM.

`C=CCCc1nc(N)nc(N)c1-c1cccc(C(F)(F)F)c1` [WCDD139, 6-(but-3-en-1-yl)-5-(3-(trifluoromethyl)phenyl)pyrimidine-2,4-diamine] showed an IC50 [1, 3] of 0.206 ± 0.0014 µM, an IC50 [1, 4] of 0.097 ± 0.003 µM and an IC50 [1, 5] of 0.14 µM. It also gave an IC50 [1, 6] of 0.14 µM and an IC50 [1, 7] of 0.106 ± 0.003 µM.

For `CCc1nc(N)nc(N)c1-c1cc(Cl)ccc1Cl` [WCDD120, 5-(2,5-dichlorophenyl)-6-ethylpyrimidine-2,4-diamine], the IC50 [1, 5] was greater than 10 µM and the IC50 [1, 6] was greater than 10 µM.

Work on `NCCCc1nc(N)nc(N)c1-c1cccc(C(F)(F)F)c1` [WCDD135, 6-(3-aminopropyl)-5-(3-(trifluoromethyl)phenyl)pyrimidine-2,4-diamine] yielded an IC50 [1, 5] greater than 20 µM.

`CCc1nc(NC)nc(NC)c1-c1ccc(Cl)cc1` [WCDD133, 5-(4-chlorophenyl)-6-ethyl-N2,N4-dimethylpyrimidine-2,4-diamine] gave an IC50 [1, 5] greater than 20 µM.

For `CCc1nc(N)nc(N)c1-c1cccc(Cl)c1F` [WCDD121, 5-(3-chloro-2-fluorophenyl)-6-ethylpyrimidine-2,4-diamine], the IC50 [1, 5] was greater than 5 µM and the IC50 [1, 6] was greater than 5 µM.

`CCc1nc(N)nc(N)c1-c1ccccc1` [WCDD111, 6-ethyl-5-phenylpyrimidine-2,4-diamine] showed an IC50 [1, 3] of 1.1 ± 0.016 µM, an IC50 [1, 4] of 0.91 ± 0.01 µM and an IC50 [1, 5] of 1.18 µM. It also gave an IC50 [1, 6] of 1.18 µM and an IC50 [1, 7] of 1.51 ± 0.0329 µM.

Work on `CCc1nc(N)nc(N)c1-c1ccc(S(=O)(=O)N2CC3(COC3)C2)cc1` [WCDD107, 5-(4-((2-oxa-6-azaspiro[3.3]heptan-6-yl)sulfonyl)phenyl)-6-ethylpyrimidine-2,4-diamine] yielded an IC50 [1, 5] greater than 20 µM and an IC50 [1, 6] greater than 20 µM.

`CCc1nc(N)nc(N)c1-c1ccc(S(=O)(=O)C2CCCC2)cc1` [WCDD106, 5-(4-(cyclopentylsulfonyl)phenyl)-6-ethylpyrimidine-2,4-diamine] was tested, and the IC50 [1, 5] was greater than 20 µM and the IC50 [1, 6] was greater than 20 µM.

`CC1(C)N=C(N)N=C(N)N1c1ccc(Cl)cc1` [CG, reference compound] gave an IC50 ([1]; Table 3, activator CDDO 100 nM, H1299-NQO1-YFP cells, read-out: CDDO 100 nM IC50 μM ± SEM) of 1.82 ± 0.085 µM, an IC50 ([1]; Table 3, activator SULF 2 μM, H1299-NQO1-YFP cells, read-out: SULF 2 μM IC50 μM ± SEM) of 1.5 ± 0.0466 µM and an IC50 ([1]; Table 3, average over activators, H1299-NQO1-YFP cells, read-out: Avg IC50) of 1.7 µM. The IC50 ([1]; read-out: PRL295 5 μM IC50 μM ± SEM, Table 3, activator PRL295 5 μM, H1299-NQO1-YFP cells) was 1.57 ± 0.008 µM, the NRF2 protein abundance (NRF2 protein) was “decreased” and the “NRF2 mRNA and NRF2 target gene mRNA” value [2] was “decreased”.

In the case of `COCCOCCc1nc(N)nc(N)c1-c1cccc(Cl)c1` [WCDD126, 5-(3-chlorophenyl)-6-(2-(2-methoxyethoxy)ethyl)pyrimidine-2,4-diamine], the IC50 [1, 3] is reported as 0.461 ± 0.017 µM, the IC50 [1, 4] is reported as 0.397 ± 0.011 µM and the IC50 [1, 5] is reported as 0.514 µM. For the same molecule, the IC50 [1, 6] was 0.514 µM and the IC50 [1, 7] was 0.683 ± 0.002 µM.

With `CCc1nc(N)nc(N)c1-c1ccc2c(c1)CCC2` [WCDD119, 5-(2,3-dihydro-1H-inden-5-yl)-6-ethylpyrimidine-2,4-diamine] the IC50 [1, 3] was 0.614 ± 0.021 µM, the IC50 [1, 4] was 0.557 ± 0.03 µM and the IC50 [1, 5] was 0.5 µM. The IC50 [1, 6] was 0.57 µM and the IC50 [1, 7] was 0.552 ± 0.003 µM.

In the case of `CCc1nc(N)nc(NC)c1-c1ccc(Cl)cc1` [WCDD133a, 5-(4-chlorophenyl)-6-ethyl-N4-methylpyrimidine-2,4-diamine], the IC50 [1, 5] is reported as greater than 20 µM.

In the case of `CCc1nc(N)nc(N)c1-c1cc(Cl)cc(Cl)c1` [WCDD114, 5-(3,5-dichlorophenyl)-6-ethylpyrimidine-2,4-diamine], the IC50 [1, 3] is reported as 0.134 ± 0.014 µM, the IC50 [1, 4] is reported as 0.111 ± 0.009 µM and the IC50 [1, 5] is reported as 0.1 µM. The IC50 [1, 6] was 0.108 µM, the IC50 [1, 7] was 0.079 ± 0.002 µM and the IC50 ([1]; unit inferred, read-out: IC50) was 0.1 µM. The NRF2 protein abundance (NRF2 protein) was “decrease NRF2 protein abundance”.

`CCc1ncnc(N)c1-c1cccc(Cl)c1` [WCDD125, 5-(3-chlorophenyl)-6-ethylpyrimidin-4-amine] gave an IC50 [1, 5] greater than 20 µM and an IC50 [1, 6] greater than 20 µM.

With `Nc1ncc(-c2ccc(Cl)cc2)c(N)n1` [WCDD103, 5-(4-chlorophenyl)pyrimidine-2,4-diamine] the IC50 [1, 3] was 16.9 ± 2.56 µM, the IC50 [1, 4] was 12.5 ± 0.798 µM and the IC50 [1, 5] was 13.1 µM. For the same molecule, the IC50 [1, 6] was 13.1 µM and the IC50 [1, 7] was 9.99 ± 0.0737 µM.
